Measurements: patent US4305940A, “Benzamides with local anaesthetic and antiarrhythmic activity, salts, and method of preparation thereof and pharmaceutical compositions therefrom” (B.B.R. Boehringer Biochemia Robin S.p.A., priority 1979, dated 1981)

Experiments:
[1] = system: aconitine-induced ventricular arrhythmia; assay: Anti-arrhythmic activity, aconitine infusion; format: in vivo, Wistar rats; conditions: for Aconitine i.v. necessary to induce ventricular arrhythmia: 3 min before aconitine 10 mcg/kg/min; for Anti-arrhythmic activity compared with lidocaine: times more active than lidocaine; for Anti-arrhythmic activity compared with quinidine: times more active than quinidine
Protocol: (§1) The data reported hereinbelow relate in every instance to the hydrochloride salts of the individual compounds.
This determination has been made in Wistar rats, anaesthetized with ethylurethane, (1 g/kg i.p.), according to the method of B. Vargaftig and J. L. Coigner (European Journal Pharmacology, 6, 49, 1969). The compounds dissolved in physiological saline solution, are injected intravenously three minutes prior to the infusion of aconitine, (10 mcg/kg/min.). The extent of anti-arrhythmic activity is determined quantitatively by determining the amount of aconitine necessary to induce ventricular arrhythmia.

corneal reflux = assay: Surface anaesthesia (corneal reflux, conjunctival sac); conditions: for Surface anaesthesia DL50/CE50: analogous to therapeutic index, DL50 i.p.; for Surface anaesthesia CE50: concentration in percent achieving 50% of total responses, pH 7 saline, hydrochloride salts; for Surface anaesthesia activity with respect to lidocaine: lidocaine = 1
Protocol: as §1
The surface anaesthesia has been determined in rabbits according to the method of M. R. A. Change and H. Lobstein (J. Pharmacol. Exper. Ther., 82, 203, 1944). The compounds dissolved in physiological saline solution of pH 7 were injected into the conjunctival sac and the corneal reflux was induced with the brush of Frey six times at intervals of five minutes for a total period of 40 minutes.

[2] = system: response to skin puncture; assay: Anaesthesia by infiltration (subcutaneous, back puncture); format: in vivo, guinea pigs; conditions: for Infiltration anaesthesia DL50/CE50: analogous to therapeutic index, DL50 i.p.; for Infiltration anaesthesia CE50: concentration in percent achieving 50% of total responses, hydrochloride salts; for Infiltration anaesthesia DL50/CE50 relative to lidocaine / Infiltration anaesthesia activity with respect to lidocaine: lidocaine = 1
Protocol: The anaesthesia by infiltration has been determined in guinea pigs according to the method of E. Bulbring and I. Wajda, (Journal of Pharmacol. Exper. Ther. 85, 78, 1945). In each experiment, four doses of the substance in 0.25 cc of physiological saline solution is injected subcutaneously on the back after removal of hair. After five minutes, each animal is punctured six times at intervals of […].
The test was repeated every five minutes for a period of 30 minutes. The extent of anaesthesia by infiltration was measured quantitatively by determining the sum of the instances in which the animal remained immobile during the thirty minute period on 36 possible blinks.

in vivo = conditions: rat, in vivo, ip; 5 days; hydrochloride salts; range in parentheses; read-out: DL50 i.p.
Excerpt: (§2) The behavior of the animals has then been followed for a period of five days. The DL50 has been determined according to the method of I. T. Litchfield and F. Wilcoxon, (J. Pharmacol. Exper. Ther., 96, 99, 1949). The compound numbers in Table II correspond to the numbers in Table I.

Swiss rats = assay: in vivo; conditions: lidocaine = 1
Excerpt: as §2

[3] = system: reflux of contraction of the lower limbs (lumbar plexus); assay: Anaesthesia by conduction (lumbar plexus); format: in vivo, frogs; conditions: for Conduction anaesthesia DL50/t' / Conduction anaesthesia 1/t'max. (c = 1%) with respect to lidocaine: c = 1%; for Conduction anaesthesia DL50/t': DL50 i.p.; for Conduction anaesthesia 1/t'max. (c = 1%) with respect to lidocaine / Conduction anaesthesia DL50/t' relative to lidocaine: lidocaine = 1
Excerpt: Anaesthesia by conduction has been determined on frogs according to the method of E. Bulbring and I. Wajda (Journal Pharmacol. Exper. Ther., 85, 78, 1945). The compounds dissolved in physiological saline solution are introduced into the cavity obtained by a transversal incision in the abdomen and separating the viscera in order to expose the lumbar plexus. The period of time necessary to eliminate the reflux of contraction of the lower limbs stimulated by immersion of both posterior legs into hydrochloric acid of increasing concentration between 0.05-0.1-0.2 N for a period not in excess of ten seconds, at intervals of one minute is determined. The extent of anaesthesia of conduction has been determined by measuring the period of time required for each compound in three different concentrations, 0.2%-0.5%-1.0% in order to abolish the reflex of contraction with the concentration of hydrochloric acid indicated hereinabove.

| Compound | Aconitine i.v. necessary to induce ventricular arrhythmia ([1]; 0.6 mg/kg i.v.) [µg/kg] | Aconitine i.v. necessary to induce ventricular arrhythmia ([1]; 1.0 mg/kg i.v.) [µg/kg] | Aconitine i.v. necessary to induce ventricular arrhythmia ([1]; 3.0 mg/kg i.v.) [µg/kg] | Anti-arrhythmic activity compared with lidocaine [1] | Anti-arrhythmic activity compared with quinidine [1] | Surface anaesthesia DL50/CE50 (corneal reflux) | Surface anaesthesia CE50 (corneal reflux) [%] | Surface anaesthesia activity with respect to lidocaine (corneal reflux) | Infiltration anaesthesia DL50/CE50 [2] | Infiltration anaesthesia CE50 [2] [%] | Infiltration anaesthesia DL50/CE50 relative to lidocaine [2] | Infiltration anaesthesia activity with respect to lidocaine [2] | LD50 at 120 h (in vivo) [mg/kg] | DL50 i.p. relative to lidocaine (Swiss rats) | Conduction anaesthesia DL50/t' [3] | Conduction anaesthesia 1/t'max. (c = 1%) with respect to lidocaine [3] | Conduction anaesthesia DL50/t' relative to lidocaine [3] | Aconitine i.v. necessary to induce ventricular arrhythmia ([1]; 8.0 mg/kg i.v.) [µg/kg] |
| --- | --- | --- | --- | --- | --- | --- | --- | --- | --- | --- | --- | --- | --- | --- | --- | --- | --- | --- |
| CCN(CC)Cc1ccccc1C(=O)Nc1c(C)cccc1C [Compound 1, 2,6-Dimethylanilide of 2-diethylaminomethylbenzoic acid] | 50 ± 5 | 67 ± 8 | 69 ± 8 | at least twenty times more active than lidocaine | at least ten times more active than quinidine | 34 | 0.50 | 4.60 | 69 | 0.25 | 0.36 | 3.00 | 17.2 | 0.12 | 6 | 3.6 | 0.46 |  |
| CCN(CC)Cc1ccccc1C(=O)Nc1c(C)cccc1C(=O)OC [Compound 14] | 45 ± 8 | 60 ± 7 | 81 ± 7 | at least twenty times more active than lidocaine | at least ten times more active than quinidine | 60 | 0.41 | 5.61 | 57 | 0.43 | 0.30 | 1.74 | 24.7 | 0.17 | 5 | 2.2 | 0.38 |  |
| CCN(CC)Cc1ccc(C(=O)Nc2c(C)cccc2C)cc1 [Compound 3] |  | 38 ± 5 | 39 ± 6 |  |  | 17 | 4.78 | 0.48 | 10 | 8.02 | 0.05 | 0.09 | 82.5 | 0.58 | 9 | 1.2 | 0.69 | 47 ± 7 |
